According to article PMC8933493, “Mechanism and biomass association of glucuronoyl esterase: an α/β hydrolase with potential in biomass conversion” (Nature Communications, 2022):

Key:
OtCE15A [1] = target: T1, OtCE15A (Opitutus terrae, UniProt B1ZMF4); test: continuous coupled assay, K-URONIC kit; Arrhenius analysis of kcat; format: biochemical; settings: 20 to 40 °C in 5 °C steps
T1 construct: gene Oter_0116; His6-tag; no CBM; E. coli BL21(DE3); IMAC and size exclusion; active-site Ser267, Arg268, Glu290, Asp356, His408
T1 sequence (B1ZMF4 entry or part of it): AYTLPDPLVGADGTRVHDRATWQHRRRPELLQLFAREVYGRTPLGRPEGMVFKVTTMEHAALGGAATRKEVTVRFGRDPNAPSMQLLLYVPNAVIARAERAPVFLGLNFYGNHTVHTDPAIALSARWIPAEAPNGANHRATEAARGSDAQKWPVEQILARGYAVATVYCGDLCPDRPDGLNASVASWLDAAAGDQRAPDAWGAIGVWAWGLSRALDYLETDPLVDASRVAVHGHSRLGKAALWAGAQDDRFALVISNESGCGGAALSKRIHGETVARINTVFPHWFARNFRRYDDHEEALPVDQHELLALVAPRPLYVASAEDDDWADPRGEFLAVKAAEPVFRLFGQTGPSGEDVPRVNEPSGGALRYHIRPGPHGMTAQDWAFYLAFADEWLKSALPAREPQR

OtCE15A [2] = target: T2, OtCE15A (Opitutus terrae, UniProt B1ZMF4, R268A); test: X-ray crystal structure after […] s soak in saturated BnzGlcA; format: binding; settings: covalent; glucuronoyl acyl-enzyme intermediate formed from the soaked substrate; pH 6.5 crystals, 10% DMSO
T2 construct: gene Oter_0116; His6-tag; no CBM; E. coli BL21(DE3); IMAC and size exclusion; active-site Ser267, Arg268, Glu290, Asp356, His408
T2 sequence (B1ZMF4 entry or part of it R268A): as the sequence (B1ZMF4 entry or part of it) above, with R236A counted along it

OtCE15A [3] = target: T1, OtCE15A; test: continuous coupled assay, K-URONIC kit (Megazyme); format: biochemical; settings: duplicate, at least 8 substrate concentrations
Description: continuous coupled assay, K-URONIC kit (Megazyme) on OtCE15A

O=C(OCc1ccccc1)[C@H]1OC(O)[C@H](O)[C@@H](O)[C@@H]1O (stereo partly drawn) [BnzGlcA, benzyl GlcA]
continuous coupled assay, K-URONIC kit; Arrhenius analysis of kcat (OtCE15A [1]): small substrate benzyl GlcA (BnzGlcA) by determining kcat at different temperatures | X-ray crystal structure after 30 s soak in saturated BnzGlcA (OtCE15A [2]): after soaking with the BnzGlcA substrate clearly shows the formation of a CI

COC(=O)[C@H]1OC(O)[C@H](O)[C@@H](O)[C@@H]1O (stereo partly drawn) [MeGlcA, GlcA methyl ester]
Km (OtCE15A [3]): 2770 ± 150 µM
